Measured values published in patent US20060276465A1, “1,2-di(cyclic) substituted benzene compounds” (Eisai R&D Management Co., Ltd., priority 2003, published 2006).
pIC50: −log10 of the molar value.

Tests used:
Balb/c mice = assay: Oxazolone-induced colon neutrophil infiltration model; format: in vivo; conditions: Mus musculus, po, 4 h, colon myeloperoxidase activity vs oxazolone control group, male Balb/c mice, 30 mg/kg orally 30 minutes before intrarectal oxazolone, colons taken four hours after, read-out: Inhibitory rate (%)
Protocol: Evaluation of Compounds in Oxazolone-Induced Colon Neutrophil Infiltration Model
<Sensitization with Oxazolone>
Five- to six-week-old male Balb/c mice (Charles River Japan) were shaven at the abdomen to an approximately 2 cm square area. A 100% ethanol solution containing 3% 4-ethoxymethylene-2-phenyl-2-oxazolin-5-one (hereinafter referred to as “oxazolone”; Sigma) was applied at 150 μl onto the abdomen of each mouse.
<Preparation of Emulsion Containing Oxazolone>
Distilled water (Otsuka Pharmaceutical) was added in an equivalent volume to 100% peanut oil (Kanto Kagaku) containing 1% oxazolone, and the components were vigorously mixed with a glass syringe (Top Co.), to prepare an emulsion containing 0.5% oxazolone.
<Induction with Oxazolone> […]
Each compound was suspended or dissolved in an aqueous solution containing 0.5% methyl cellulose (Wako), and orally administered at 30 mg/kg 30 minutes prior to the intrarectal injection of oxazolone emulsion. […] Specifically, to 10 μl of the obtained supernatant was added 200 μl of 50 mM KPB (pH6.0) containing 0.017% o-dianisidine (Sigma) and 0.0005% hydrogen peroxide (Wako), incubated at 37° C., and the change in absorbance at 450 nm was continuously measured for 1 minute using an EL340 Automated Microplate Reader (BIO-TEK) in kinetic mode. The units were the rate of change in absorbance per minute (mO.D./min.). […]

Jurkat cells = assay: Jurkat cell adhesion system (adhesion to immobilized human fibronectin, PMA-stimulated); format: cell-based; conditions: concentration inhibiting by 50% the PMA-stimulated increase in the number of adhered Jurkat cells on human fibronectin; 45-60 minutes, 37° C.
Protocol: Evaluation of Compounds in Jurkat Cell Adhesion System
<Immobilization of Human Fibronectin in 96-Well Plate>
Human fibronectin (Becton Dickinson Biosciences) was diluted with phosphate-buffered saline (hereinafter abbreviated as PBS; Sigma) to 0.1-0.01 μg/ml, and the diluted solution was added to a 96-well plate (Becton Dickinson) at 50 μl/well, and allowed to stand overnight at 4° C. On the following day, the supernatant was removed from the plate, and then PBS containing 1% bovine serum albumin (hereinafter abbreviated as BSA; Sigma) was added thereto at 100 μl/well and incubation was performed at 37° C. for 2 hours in a CO2 incubator (Hirasawa).
The supernatant was removed from each plate and Jurkat cells suspended in RPMI-1640 (Sigma) containing 1 mg/ml BSA were added at 80 μl/well for 2.5×10^5 cells/well. The compound diluted to different concentrations with RPMI-1640 containing 1 mg/ml BSA was immediately added at 10 μl/well, and then 100 nM phorbol myristate acetate (hereinafter abbreviated as PMA; Sigma) in RPMI-1640 containing 1 mg/ml BSA was added at 10 μl/well and the plate was incubated in a CO2 incubator at 37° C. for 45-60 minutes. The supernatant was removed from the plate and each well was washed several times with 100 μl/well of RPMI-1640, after which 50 mM citrate buffer (pH 5.0) containing 3.75 mM p-nitrophenol-N-acetyl-β-D-glucosaminide (Sigma) and 0.25% Triton X-100 (Sigma) were added at 60 μl/well, and the mixture was placed in a CO2 incubator and incubated at 37° C. for 45 minutes. After incubation, 50 mM glycine buffer (pH 10.4) containing 5 mM EDTA was added at 90 μl/well, and the absorbance at 405 nm was measured with an EL340 Automated Microplate Reader (BIO-TEK) to determine the adhered cell count. The concentration of each compound which inhibited the increase in the number of adhered cells by the PMA-stimulation by 50% was recorded as the IC50 (μM).

In the case of `COCCN1CCN(c2ccccc2C2CCC(C(C)(C)C)CC2)CC1.Cl` (centres unmarked) [Example 19, 1-[2-(4-t-Butylcyclohexyl)phenyl]-4-(2-methoxyethyl)piperazine hydrochloride], the inhibition in vivo at 30 mg/kg (Balb/c mice) was 53% and the pIC50 (Jurkat cells) was 5.21.
